{"source": "patent EP4534610A1", "about": "“FLUOROPHORE COMPOUNDS AND PRODUCTION THEREOF” (Université Fribourg, priority 2023, dated 2025)", "key": {"[1]": {"assay": "Photoluminescence emission spectra in different solvents", "format": "physicochemical", "settings": "excitation at 370nm", "description": "The photo-physical properties of these dye molecules with stilbene-like motifs were investigated in different solvents in order to determine their maximum absorption and emission wavelengths (Figures 6A to 6C). The compounds were dissolved in Acetonitrile (CH3CN), chloroform (CHCl3), c-hexane (c-HEX), dichloromethane (DCM), dimethylformamide (DMF), methanol (MeOH), tetrahydrofuran (THF), and toluene (Tol).\nThe highest emission intensity was detected when THF and c-Hex were used as solvents, with lesser intensity recorded for DMF and Tol. PyPe emits light in the blue range, with emission peaks between 380nm and 550nm. Absolute intensities of up to 3.5 x 10^6 were recorded for PyPe in c-Hex.\nThe photoluminescence spectra of PyPeBr upon excitation at 440nm when dissolved in CH3CN, CHCl3, DCM, DMF, MeOH, or Tol, and upon excitation at 370 nm when dissolved in c-Hex or THF is shown in Figure 4B. PyPeBr has a relatively broad emission spectrum, which depends on the solvent used. The emission spectrum of PyPeBr can be as broad to cover most of the visible range. This broad emission range offers the possibility to select a desired wavelength for imaging by applying appropriate filters.\nPyPh emits light in the blue range, ranging from 400nm to 500nm. […] The loss in stability is due to the self-photobleaching reactions, which are induced by irradiation.\n(§1) ^1H-NMR was recorded on 400 MHz (Brucker DRX 400) and ^13C-NMR spectra were recorded on Bruker 100 MHz spectrometer at room temperature with d6-DMSO as a solvent and tetramethylsilane (TMS) as the internal standard. Mass spectra were performed on the Bruker-ION Trap Ms. Fluorescence spectra were measured on an Edinburgh Instruments FS5 Spectrofluorometer. Absorption spectra were determined on a Perkin Elmer UV/VIS Lambda 2 (190-1100 nm) spectrophotometer. IR spectra were recorded on a Perking Elmer FT-IR spectrometer Frontier 4000-400 cm^-1. Single crystal structures were obtained from a STOE-IPDS II (Single crystal diffractometer λ-Mo), solved and refined using SHELXT software package."}, "HEK/OVA-B16 cells": {"test_system": "HEK/OVA-B16 cells", "assay": "Staining and fluorescence imaging of living cells", "format": "cell-based", "settings": "for morphological signs of cell toxicity: 10µM; for uptake by living cells: dyes applied for up to 1 hour at 10µM; for fluorescence emission spectrum in situ, peak: excited at 405 nm"}, "[2]": {"assay": "Optical properties in different solvents: emission and absorption maxima, lifetime, quantum yield", "format": "physicochemical", "settings": "for Lifetime, τavr.: multiexponential lifetime represented with τavr.; for Φf: quantum yield determined using integrating sphere; for λ^em max: λex = 405 nm", "description": "as §1"}, "[3]": {"assay": "Photostability: UV-visible spectra of 5µM solutions after continuous irradiation with 400 nm light (Xenon-arc lamp, 300 Watt)", "format": "physicochemical", "settings": "for stability of the absorbance under irradiation: up to 24h", "description": "To examine the stability of the absorbance of PyPeBr and PyPe, 5µM solution (2.5 mL) of the respective compounds were prepared using different solvents. The compounds were then irradiated with 400nm using a Xenon-arc lamp at 300 Watt (25 nm FWHM). Following predefined irradiation periods, indicated in Figures 6A to 6H, UV-visible spectra were collected to monitor the stability of PyPeBr and PyPe in different solvents."}}, "data": [{"molecule": "C(=C\\c1ccc2ccc3cccc4ccc1c2c34)/c1ccncc1", "note": "[PyPe, (E)-4-(2-(pyren-1-yl)vinyl)pyridine, reference compound]", "values": [{"measurement": "absolute emission intensities", "setting": "[1]; in c-Hex", "value": "up to 3.5 x 10^6"}, {"measurement": "morphological signs of cell toxicity", "setting": "HEK/OVA-B16 cells", "value": "No morphological signs of cell toxicity"}, {"measurement": "staining pattern in cells", "setting": "HEK/OVA-B16 cells; HEK/OVA-B16 cells", "value": "cytosolic staining and subcellular partitioning"}, {"measurement": "uptake by living cells", "setting": "HEK/OVA-B16 cells", "value": "readily taken up"}, {"measurement": "fluorescence emission spectrum in situ, peak", "setting": "HEK/OVA-B16 cells", "value": 465, "unit": "nm"}, {"measurement": "Knr", "setting": "[2]; solvent CH3CN", "value": "0.38 10^8 s^-1"}, {"measurement": "kr", "setting": "[2]; solvent CH3CN", "value": "4.44 10^8 s^-1"}, {"measurement": "Lifetime, τavr.", "setting": "[2]; solvent CH3CN", "value": 2.07, "unit": "ns"}, {"measurement": "Φf", "setting": "[2]; solvent CH3CN", "value": 0.92}, {"measurement": "λ^em max", "setting": "[2]; solvent CH3CN", "value": 616, "unit": "nm"}, {"measurement": "Knr", "setting": "[2]; solvent CHCl3", "value": "0.66 10^8 s^-1"}, {"measurement": "kr", "setting": "[2]; solvent CHCl3", "value": "5.44 10^8 s^-1"}, {"measurement": "Lifetime, τavr.", "setting": "[2]; solvent CHCl3", "value": 1.65, "unit": "ns"}, {"measurement": "Φf", "setting": "[2]; solvent CHCl3", "value": 0.89}, {"measurement": "λ^em max", "setting": "[2]; solvent CHCl3", "value": 607, "unit": "nm"}, {"measurement": "Knr", "setting": "[2]; solvent DCM", "value": "2.38 10^8 s^-1"}, {"measurement": "kr", "setting": "[2]; solvent DCM", "value": "3.43 10^8 s^-1"}, {"measurement": "Lifetime, τavr.", "setting": "[2]; solvent DCM", "value": 1.72, "unit": "ns"}, {"measurement": "Φf", "setting": "[2]; solvent DCM", "value": 0.59}, {"measurement": "λ^em max", "setting": "[2]; solvent DCM", "value": 623, "unit": "nm"}, {"measurement": "Knr", "setting": "[2]; solvent DMF", "value": "0.26 10^8 s^-1"}, {"measurement": "kr", "setting": "[2]; solvent DMF", "value": "2.60 10^8 s^-1"}, {"measurement": "Lifetime, τavr.", "setting": "[2]; solvent DMF", "value": 3.5, "unit": "ns"}, {"measurement": "Φf", "setting": "[2]; solvent DMF", "value": 0.91}, {"measurement": "Knr", "setting": "[2]; solvent MeOH", "value": "0.65 10^8 s^-1"}, {"measurement": "kr", "setting": "[2]; solvent MeOH", "value": "3.19 10^8 s^-1"}, {"measurement": "Lifetime, τavr.", "setting": "[2]; solvent MeOH", "value": 2.6, "unit": "ns"}, {"measurement": "Φf", "setting": "[2]; solvent MeOH", "value": 0.83}, {"measurement": "λ^em max", "setting": "[2]; solvent MeOH", "value": 611, "unit": "nm"}, {"measurement": "Knr", "setting": "[2]; solvent THF", "value": "2.17 10^8 s^-1"}, {"measurement": "kr", "setting": "[2]; solvent THF", "value": "2.26 10^8 s^-1"}, {"measurement": "Lifetime, τavr.", "setting": "[2]; solvent THF", "value": 2.26, "unit": "ns"}, {"measurement": "Φf", "setting": "[2]; solvent THF", "value": 0.51}, {"measurement": "λ^em max", "setting": "[2]; solvent THF", "value": 613, "unit": "nm"}, {"measurement": "Knr", "setting": "[2]; solvent Toluene", "value": "0.53 10^8 s^-1"}, {"measurement": "kr", "setting": "[2]; solvent Toluene", "value": "3.91 10^8 s^-1"}, {"measurement": "Lifetime, τavr.", "setting": "[2]; solvent Toluene", "value": 2.25, "unit": "ns"}, {"measurement": "Φf", "setting": "[2]; solvent Toluene", "value": 0.88}, {"measurement": "λ^em max", "setting": "[2]; solvent Toluene", "value": 603, "unit": "nm"}, {"measurement": "Knr", "setting": "[2]; solvent c-Hex", "value": "0.47 10^8 s^-1"}, {"measurement": "kr", "setting": "[2]; solvent c-Hex", "value": "0.84 10^8 s^-1"}, {"measurement": "Lifetime, τavr.", "setting": "[2]; solvent c-Hex", "value": 7.58, "unit": "ns"}, {"measurement": "Φf", "setting": "[2]; solvent c-Hex", "value": 0.64}, {"measurement": "stability of the absorbance under irradiation", "setting": "[3]; 5µM in DCM", "value": "an early bleaching effect could be detected within the first 15 minutes of irradiation"}, {"measurement": "stability of the absorbance under irradiation", "setting": "[3]; 5µM in MeOH", "value": "an early bleaching effect could be detected within the first 15 minutes of irradiation"}]}, {"molecule": "C(=C\\c1ccc2ccc3cccc4ccc1c2c34)/c1ccccc1", "note": "[PyPh, (E)-1-styrylpyrene]", "values": [{"measurement": "highest emission intensity, factor less than optimal emission intensities of PyPeBr", "setting": "[1]", "value": "~1000"}, {"measurement": "morphological signs of cell toxicity", "setting": "HEK/OVA-B16 cells", "value": "No morphological signs of cell toxicity"}, {"measurement": "uptake by living cells", "setting": "HEK/OVA-B16 cells", "value": "readily taken up"}, {"measurement": "fluorescence emission spectrum in situ, peak", "setting": "HEK/OVA-B16 cells", "value": 450, "unit": "nm"}, {"measurement": "stability of the absorbance under irradiation", "setting": "[3]; 5µM in DCM", "value": "Comparable results"}, {"measurement": "stability of the absorbance under irradiation", "setting": "[3]; 5µM in MeCN", "value": "gradually decreases over a 24h irradiation period, with a significant drop detected as early as after 15 mins of irradiation"}, {"measurement": "stability of the absorbance under irradiation", "setting": "[3]; 5µM in MeOH", "value": "gradually decreases over a 24h irradiation period, with a significant drop detected as early as after 15 mins of irradiation"}]}, {"molecule": "Cascade Blue", "values": [{"measurement": "irradiation time to complete photobleaching", "setting": "[3]; 5µM in ultra-pure water (Milli Q purification)", "value": "≤ 8", "unit": "h"}]}]}
